The values that follow come from PMC7594047, “Synthesis of a New Class of Spirooxindole–Benzo[b]Thiophene-Based Molecules as Acetylcholinesterase Inhibitors” (Molecules, 2020).

A word on the inhibition: it is the relative decrease from the control value, in per cent. What is called IC50 is the concentration at which inhibition is half-maximal.

The target in this experiment is T1, acetylcholinesterase enzyme from electric eel (Electrophorus electricus, UniProt O42275).
T1 construct: purchased Sigma-Aldrich CAS Number 9000-81-1 (catalogue number not given)
T1 sequence (O42275 24-633): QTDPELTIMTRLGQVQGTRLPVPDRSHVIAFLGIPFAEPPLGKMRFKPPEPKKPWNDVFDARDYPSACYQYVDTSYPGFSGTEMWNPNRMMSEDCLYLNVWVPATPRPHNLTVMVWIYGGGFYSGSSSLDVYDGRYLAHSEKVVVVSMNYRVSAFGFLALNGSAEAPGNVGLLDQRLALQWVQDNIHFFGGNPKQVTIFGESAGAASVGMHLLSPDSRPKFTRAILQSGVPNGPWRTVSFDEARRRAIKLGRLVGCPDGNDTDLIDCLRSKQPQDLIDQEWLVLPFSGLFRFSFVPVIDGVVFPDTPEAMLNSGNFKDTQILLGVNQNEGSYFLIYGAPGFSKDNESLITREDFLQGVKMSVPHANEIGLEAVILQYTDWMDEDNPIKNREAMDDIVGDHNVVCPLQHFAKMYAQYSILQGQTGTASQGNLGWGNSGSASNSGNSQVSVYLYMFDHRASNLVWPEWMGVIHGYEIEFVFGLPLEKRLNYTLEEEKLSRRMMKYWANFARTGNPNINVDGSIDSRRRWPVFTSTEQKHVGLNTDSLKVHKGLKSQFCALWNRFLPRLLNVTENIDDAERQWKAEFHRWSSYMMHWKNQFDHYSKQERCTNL
As to the kind of experiment: Acetylcholinesterase (AChE) inhibitory assay (DTNB/acetylthiocholine iodide, absorbance at 412 nm). The settings on record: for inhibition at 1.56 µg/mL: Conc 1.56 ug/ml; for inhibition at 3.125 µg/mL: Conc 3.125 ug/ml; for inhibition at 6.25 µg/mL: Conc 6.25 ug/ml; for inhibition at 12.5 µg/mL: Conc 12.5 ug/ml; for inhibition at 25 µg/mL: Conc 25 ug/ml; for inhibition at 50 µg/mL: Conc 50 ug/ml. Format: biochemical. As for the experimental part:
The in vitro cholinesterase inhibitory activity of the 14 synthesized spiro-oxindole derivatives (IIa–n) were evaluated. […] Galantamine was used as a positive control for comparison.
Acetylcholinesterase (AChE) inhibitory assay.
140 μL of 0.1 M sodium phosphate buffer of pH 8 was first added to a 96-wells microplate followed by 20 μL of test samples and 20 μL of 0.09 units/mL acetylcholinesterase enzyme from electric eel (Sigma-Aldrich, CAS Number 9000-81-1). After 15 min of incubation at 25 °C, 10 μL of 10 mM 5,5′-dithiobis-2-nitrobenzoic acid (DTNB, Sigma-Aldrich, CAS Number 69-78-3) was added into each well followed by 10 μL of 14 mM acetylthiocholine iodide (Sigma-Aldrich, CAS Number 1866-15-5). Thirty min after the initiation of enzymatic reaction, absorbance of the colored end-product was measured using StatFax-2100 microplate reader (Awareness Technology, Inc., USA) at 412 nm. Each test was conducted in triplicates. Test samples were prepared in DMSO at an initial concentration of 1 mg/mL (1000 ppm).
The concentration of DMSO in final reaction mixture was 1%.
The initial screening was carried out at 50 μg/mL of test samples in 1% DMSO. Absorbance of the test samples was corrected by subtracting the absorbance of their respective blank. Percentage enzyme inhibition is calculated using the following formula Percentage of inhibition = Absorbance of control - […]

Setting [1] is: read-out: IC50 value against AChE.
Where [2] appears, read: supplement, six concentrations 1.56-50 μg/mL, read-out: IC50 (AchE inhibition) (converted).

Like-named read-outs stand apart in the source and are kept apart here. Bounds are passed on as bounds.

As for `O=C(c1ccccc1)C1C(c2cc3ccccc3s2)C2CSCN2[C@@]12C(=O)Nc1ccc(Cl)cc12` (stereo partly drawn) [IIa, (3S)-7′-(Benzo[b]thiophen-2-yl)-6′-benzoyl-5-chloro-3′,6′,7′,7a’-tetrahydro-1′H-spiro[indoline-3,5′-pyrrolo[1,2-c]thiazol]-2-one], 1.56 µg/mL produced 1.68% inhibition, the inhibition at 3.125 µg/mL came to 6.58%, the inhibition at 6.25 µg/mL turned out to be 14.4% and testing at 12.5 µg/mL gave an inhibition of 27.7%. This molecule returned an inhibition at 25 µg/mL of 39% and an inhibition at 50 µg/mL of 50.4%. Moreover, the IC50 under setting [1] is greater than 70 µM. The concentration for half-maximal inhibition (IC50) under setting [2] was 85.6 µM.
With `O=C(c1ccc(Br)cc1)C1C(c2cc3ccccc3s2)C2CSCN2[C@@]12C(=O)Nc1ccccc12` (stereo partly drawn) [IIm, (3S)-7′-(Benzo[b]thiophen-2-yl)-6′-(4-bromobenzoyl)-3′,6′,7′,7a’-tetrahydro-1′H-spiro[indoline-3,5′-pyrrolo[1,2-c]thiazol]-2-one], under setting [1], the IC50 came to 41.4 µM.
With `O=C(c1ccc(C(F)(F)F)cc1)C1C(c2cc3ccccc3s2)C2C3CCCCC3CN2[C@@]12C(=O)Nc1ccc(Cl)cc12` (stereo partly drawn) [IIk, (3S)-1′-(Benzo[b]thiophen-2-yl)-5-chloro-2′-(4-(trifluoromethyl)benzoyl)-1′,2′,5′,5a’,6′,7′,8′,9′,9a’,9b’-decahydrospiro[indoline-3,3′-pyrrolo[2,1-a]isoindol]-2-one], at 1.56 µg/mL the inhibition was 9.95%, at 3.125 µg/mL the inhibition was 24.8%, testing at 6.25 µg/mL gave an inhibition of 32.8% and 12.5 µg/mL produced 41.8% inhibition. This molecule had an inhibition at 25 µg/mL of 49.2% and an inhibition at 50 µg/mL of 57.3%. In addition, the IC50 under setting [1] is 41.5 µM. Under setting [2], the IC50 was 41.5 µM.
For `O=C(c1ccc(F)cc1)C1C(c2cc3ccccc3s2)C2CSCN2[C@@]12C(=O)Nc1ccc(Cl)cc12` (stereo partly drawn) [IIg, (3S)-7′-(Benzo[b]thiophen-2-yl)-5-chloro-6′-(4-fluorobenzoyl)-3′,6′,7′,7a’-tetrahydro-1′H-spiro[indoline-3,5′-pyrrolo[1,2-c]thiazol]-2-one], the inhibition at 1.56 µg/mL came out at 23.4%, the inhibition at 3.125 µg/mL amounted to 30.3%, the inhibition at 6.25 µg/mL stood at 41.5% and the inhibition at 12.5 µg/mL stood at 51.8%. Moreover, the inhibition at 25 µg/mL was determined as 59% and the inhibition at 50 µg/mL came to 68.3%. For the same molecule, under setting [1], the IC50 stood at 23 µM. Besides, under setting [2], the IC50 is 23 µM.
With `O=C(c1ccc(Br)cc1)C1C(c2cc3ccccc3s2)C2CSCN2[C@@]12C(=O)Nc1ccc(Cl)cc12` (stereo partly drawn) [IIl, (3S)-7′-(Benzo[b]thiophen-2-yl)-6′-(4-bromobenzoyl)-5-chloro-3′,6′,7′,7a’-tetrahydro-1′H-spiro[indoline-3,5′-pyrrolo[1,2-c]thiazol]-2-one], the inhibition at 1.56 µg/mL came out at 11.6%, testing at 3.125 µg/mL gave an inhibition of 25.6%, the inhibition at 6.25 µg/mL is 34.9% and the inhibition at 12.5 µg/mL was found to be 44.4%. The molecule also yielded an inhibition at 25 µg/mL of 56.5% and an inhibition at 50 µg/mL of 64.9%. Further, the IC50 under setting [1] turned out to be 29.8 µM. In addition, the IC50 under setting [2] is 29.8 µM.
Turning to `O=C(c1ccc(Br)cc1)C1C(c2cc3ccccc3s2)C2C3CCCCC3CN2[C@@]12C(=O)Nc1ccc(Cl)cc12` (stereo partly drawn) [IIn, (3S)-1′-(Benzo[b]thiophen-2-yl)-2′-(4-bromobenzoyl)-5-chloro-1′,2′,5′,5a’,6′,7′,8′,9′,9a’,9b’-decahydrospiro[indoline-3,3′-pyrrolo[2,1-a]isoindol]-2-one], at 1.56 µg/mL the inhibition was 15.6%, the inhibition at 3.125 µg/mL worked out at 23.4%, 6.25 µg/mL produced 32.5% inhibition and the inhibition at 12.5 µg/mL was 41.8%. Besides, testing at 25 µg/mL gave an inhibition of 50.1% and 50 µg/mL produced 61% inhibition. Further, the IC50 under setting [1] turned out to be 36.8 µM. Under setting [2], the IC50 is 36.8 µM.
As to `O=C(c1ccc(C(F)(F)F)cc1)C1C(c2cc3ccccc3s2)C2CSCN2[C@@]12C(=O)Nc1ccccc12` (stereo partly drawn) [IIj, (3S)-7′-(Benzo[b]thiophen-2-yl)-6′-(4-(trifluoromethyl)benzoyl)-3′,6′,7′,7a’-tetrahydro-1′H-spiro[indoline-3,5′-pyrrolo[1,2-c]thiazol]-2-one], at 1.56 µg/mL the inhibition was 1.68%, at 3.125 µg/mL the inhibition was 6.43%, 6.25 µg/mL produced 12.2% inhibition and 12.5 µg/mL produced 29.4% inhibition. Moreover, the inhibition at 25 µg/mL was 41% and 50 µg/mL produced 50.7% inhibition. Also, the IC50 under setting [2] is 76 µM.
`O=C(c1ccc(C(F)(F)F)cc1)C1C(c2cc3ccccc3s2)C2CSCN2[C@@]12C(=O)Nc1ccc(Cl)cc12` (stereo partly drawn) [IIi, (3S)-7′-(Benzo[b]thiophen-2-yl)-5-chloro-6′-(4-(trifluoromethyl)benzoyl)-3′,6′,7′,7a’-tetrahydro-1′H-spiro[indoline-3,5′-pyrrolo[1,2-c]thiazol]-2-one] returned an inhibition at 1.56 µg/mL of 1.23%, an inhibition at 3.125 µg/mL of 7.35%, an inhibition at 6.25 µg/mL of 12.7% and an inhibition at 12.5 µg/mL of 26.2%. Also, the inhibition at 25 µg/mL was determined as 38.7% and the inhibition at 50 µg/mL came out at 52.4%. Under setting [2], the IC50 is 72.4 µM.
The molecule `O=C(c1ccccc1)C1C(c2cc3ccccc3s2)C2C3CCCCC3CN2[C@@]12C(=O)Nc1ccc(Cl)cc12` (stereo partly drawn) [IIc, (3S)-1′-(Benzo[b]thiophen-2-yl)-2′-benzoyl-5-chloro-1′,2′,5′,5a’,6′,7′,8′,9′,9a’,9b’-decahydrospiro[indoline-3,3′-pyrrolo[2,1-a]isoindol]-2-one] returned an inhibition at 1.56 µg/mL of 13.9%, an inhibition at 3.125 µg/mL of 29.9%, an inhibition at 6.25 µg/mL of 43.5% and an inhibition at 12.5 µg/mL of 54.5%. Also, the inhibition at 25 µg/mL is 61.6% and the inhibition at 50 µg/mL came to 70.3%. Moreover, under setting [2], the half-maximal inhibitory concentration (IC50) is 20.8 µM.
Molecule `O=C(c1ccccc1)C1C(c2cc3ccccc3s2)C2CSCN2[C@@]12C(=O)Nc1ccccc12` (stereo partly drawn) [IIb, (3S)-7′-(Benzo[b]thiophen-2-yl)-6′-benzoyl-3′,6′,7′,7a’-tetrahydro-1′H-spiro[indoline-3,5′-pyrrolo[1,2-c]thiazol]-2-one] had an inhibition at 1.56 µg/mL of 2.76%, an inhibition at 3.125 µg/mL of 8.12%, an inhibition at 6.25 µg/mL of 16.2% and an inhibition at 12.5 µg/mL of 25.6%. Besides, at 25 µg/mL the inhibition was 40.9% and the inhibition at 50 µg/mL was found to be 51.5%. In addition, the IC50 under setting [1] is greater than 70 µM. Moreover, the IC50 under setting [2] is 88.4 µM.
Take `O=C(c1ccc(F)cc1)C1C(c2cc3ccccc3s2)C2C3CCCCC3CN2[C@@]12C(=O)Nc1ccc(Cl)cc12` (stereo partly drawn) [IIh, (3S)-1′-(Benzo[b]thiophen-2-yl)-5-chloro-2′-(4-fluorobenzoyl)-1′,2′,5′,5a’,6′,7′,8′,9′,9a’,9b’-decahydrospiro[indoline-3,3′-pyrrolo[2,1-a]isoindol]-2-one]: the inhibition at 1.56 µg/mL amounted to 0.46%, the inhibition at 3.125 µg/mL worked out at 6.58%, the inhibition at 6.25 µg/mL is 10.7% and the inhibition at 12.5 µg/mL was found to be 23.3%. In addition, at 25 µg/mL the inhibition was 27.4% and testing at 50 µg/mL gave an inhibition of 43%. In addition, the IC50 (Table 1, read-out: AChE Inhibition IC50) turned out to be 122 µM. The IC50 under setting [2] is 122 µM.
`O=C(c1ccc(Cl)cc1)C1C(c2cc3ccccc3s2)C2C3CCCCC3CN2[C@@]12C(=O)Nc1ccc(Cl)cc12` (stereo partly drawn) [IIf, (3S)-1′-(Benzo[b]thiophen-2-yl)-5-chloro-2′-(4-chlorobenzoyl)-1′,2′,5′,5a’,6′,7′,8′,9′,9a’,9b’-decahydrospiro[indoline-3,3′-pyrrolo[2,1-a]isoindol]-2-one] had an inhibition at 1.56 µg/mL of 16.1%, an inhibition at 3.125 µg/mL of 24.4%, an inhibition at 6.25 µg/mL of 34.9% and an inhibition at 12.5 µg/mL of 43%. This molecule also came in with an inhibition at 25 µg/mL of 53% and an inhibition at 50 µg/mL of 63.1%. The IC50 under setting [1] came to 34 µM. The IC50 under setting [2] was 34 µM.
Molecule `O=C(c1ccc(Cl)cc1)C1C(c2cc3ccccc3s2)C2CSCN2[C@@]12C(=O)Nc1ccc(Cl)cc12` (stereo partly drawn) [IId, (3S)-7′-(Benzo[b]thiophen-2-yl)-5-chloro-6′-(4-chlorobenzoyl)-3′,6′,7′,7a’-tetrahydro-1′H-spiro[indoline-3,5′-pyrrolo[1,2-c]thiazol]-2-one] displayed an inhibition at 1.56 µg/mL of 19.8%, an inhibition at 3.125 µg/mL of 24.8%, an inhibition at 6.25 µg/mL of 29.7% and an inhibition at 12.5 µg/mL of 41.5%. For the same molecule, at 25 µg/mL the inhibition was 53.3% and the inhibition at 50 µg/mL amounted to 64%. For the same molecule, the IC50 under setting [1] turned out to be 37.7 µM. The IC50 under setting [2] was 37.7 µM.
